{
  "source": "patent US20010044404A1",
  "about": "“Cleaning process and composition” (3M Innovative Properties Company, priority 1995, published 2001)",
  "key": {"[1]": {"assay": "Pump oil removal in vapor of boiling n-C6H14/perfluorocompound mixture", "settings": "vapor of boiling 40 volume % n-C6H14, 60 volume % fluorinated component; 60 seconds", "method": "The above-described test coupon was dipped into DuoSeal Pump Oil (available from Sargent-Welch) and was then immersed in the vapor of a boiling mixture of 40 volume % n-C6H14 and 60 volume % alkoxy-substituted perfluorocompound (a cleaning composition of the invention), for 60 seconds. The percent oil removal was determined in the above-described manner."}, "[2]": {"assay": "Flash point testing ASTM D3278-89", "assay_type": "physicochemical", "method": "The alkoxy-substituted perfluorocompounds C4F9OCH3, C4F9OC2H5, and c-C6F11OCH3 were tested for flash point by the standard method defined by ASTM D3278-89."}, "[3]": {"assay": "Mineral oil removal with boiling methyl decanoate/perfluorocompound mixture", "settings": "boiling mixture 40 volume % methyl decanoate, 60 volume % perfluorocompound", "method": "The above-described test coupon was dipped in white heavy mineral oil (available from Aldrich Chemical), was immersed in a boiling single-phase mixture of 40 volume % of a solvating agent comprising essentially methyl decanoate and 60 volume % of alkoxy-substituted perfluorocompound (a cleaning composition of the invention) for 60 seconds, was cooled for 60 seconds, and was then immersed in mixture vapor for 30 seconds. The percent oil removal was determined in the above-described manner."}, "[4]": {"assay": "Ability to dissolve halogenated oils (miscibility)", "assay_type": "physicochemical", "settings": "room temperature", "method": "The ability of alkoxy-substituted perfluorocompounds to dissolve several halogenated oils was determined by adding a measured amount of oil to alkoxy-substituted perfluorocompound until the resulting mixture became turbid or phase-split. […] The results (shown in Table 12) indicate that alkoxy-substituted perfluorocompounds have very high ability to dissolve halogenated oils. Thus, the perfluorocompounds can be used as carrier solvents for halogenated oils in the deposition of coatings of such oils on substrate surfaces."}, "[5]": {"assay": "Fluorinated oil removal from aluminum coupon", "settings": "Krytox 157FSM, room temperature", "method": "Using essentially the same procedure as that described in Examples 8-10, the ability of the alkoxy-substituted perfluorocompounds to remove a fluorinated oil was evaluated. As in the previous Examples, a coupon was immersed in Krytox™ 157FSM perfluoropolyether oil having carboxylic acid end groups (available from DuPont), and the percent oil remaining after immersion in the solvent (at room temperature) was determined."}, "[6]": {"assay": "Solvency properties: largest normal hydrocarbon alkane soluble at 50 percent by volume", "description": "A number of potential solvents were tested for their ability to dissolve hydrocarbons of increasing molecular weight according to the procedure described in U.S. Pat. No. 5,275,669 (Van Der Puy et al.), the description of which is incorporated herein by reference. The data shown in Table 1 were obtained by determining the largest normal hydrocarbon alkane which was soluble in a particular solvent at a level of 50 percent by volume. The numbers in the Table correspond with the carbon number of the largest alkane, e.g., “8” refers to octane. Measurements were made from room temperature up to the boiling point of the solvent. For comparative purposes, hydrofluorocarbons (HFCs) and perfluorocarbons (PFCs) were also tested using this method.\nUsing essentially the above-described method, the solvency properties of other alkoxy-substituted perfluorocompounds were tested at room temperature."}, "[7]": {"assay": "Closed cup flash point ASTM D3278-96", "assay_type": "physicochemical", "method": "Various properties were measured for C4F9OCH3, CHClFCF2OCH3, and blends of each ether compound with cosolvent, trans-1,2-dichloroethylene (hereinafter, t-DCE) or n-butyl bromide, at various weight ratios."}, "[8]": {"assay": "Stability in the presence of base: aqueous NaOAc, fluoride ion measurement", "assay_type": "physicochemical", "settings": "10 g with 10 g 0.1M NaOAc, 110° C., 16 hours", "method": "To assess hydrolytic stability, a ten gram sample of alkoxy-substituted perfluorocompound was combined with 10 g of 0.1M NaOAc and sealed in a 2.54 cm (internal diameter) by 9.84 cm Monel™ 400 alloy (66% nickel, 31.5% copper, and 1.2% iron and several minor components) tube (available from Paar Instrument Co. of Moline, Ill. as Part Number 4713cm). The tube was heated at 110° C. in a forced air convection oven for 16 hours. After cooling to room temperature, a 1 mL sample of the tube contents was diluted with 1 mL of total ionic strength adjustment buffer (TISAB, available from Orion Research, Inc., a mixture of 1,2-cyclohexylene dinitrilotetraacetic acid, deionized water, sodium acetate, sodium chloride, and acetic acid). The concentration of fluoride ion (resulting from any reaction of the perfluorocompound with the aqueous NaOAc) was measured using an Orion Model 720A Coulombmeter with a F-specific electrode which had been previously calibrated using 0.5 and 500 ppm F^− solutions. Based on the measured fluoride ion concentration, the rate at which HF had been generated by reaction of the aqueous NaOAc with the perfluorocompound was calculated."}, "[9]": {"assay": "Hydrolytic stability under more severely basic conditions (aqueous KOH reflux)", "assay_type": "physicochemical", "settings": "refluxed at 58° C. for 19 hours", "method": "To assess hydrolytic stability under more severely basic conditions, C4F9OCH3 (125 g of 99.8% purity, 0.5 mole) was combined with potassium hydroxide ([…], dissolved in 26.1 g water) in a 250 mL flask equipped with an overhead stirrer, a condenser, and a thermometer, and the resulting solution was refluxed at 58° C. for 19 hours. Water (50 mL) was added to the solution after refluxing, and the resulting product was distilled. The lower fluorochemical phase of the resulting distillate was separated from the upper phase and was washed with water (100 mL) to yield 121.3 g of recovered C4F9OCH3, which was identical in purity and composition to the starting material (as shown by gas chromatography)."}, "[10]": {"assay": "Stability in the presence of acid (96% sulfuric acid, GLC)", "assay_type": "physicochemical", "method": "To assess hydrolytic stability under acidic conditions, C4F9OCH3 (15 g, 0.06 mole) was combined with sulfuric acid (10 g of 96% by weight, 0.097 mole) in a 50 mL flask containing a stir bar and fitted with a reflux condenser. The resulting mixture was stirred for 16 hours at room temperature, and then the resulting upper fluorochemical phase was separated from the resulting lower sulfuric acid phase. […] Chem. 49, 4007 (1984), which states that “[f]luorine atoms attached to carbon which also bears an alkyl ether group are known to be labile to electrophilic reagents. They are readily hydrolyzed in concentrated sulfuric acid, thus providing a route to some esters of fluoroacids.”"}, "[11]": {"assay": "Mineral oil removal from aluminum coupon, sonication in solvent", "settings": "sonicated 1 minute", "method": "In the following Examples and Comparative Examples, the cleaning ability of the alkoxy-substituted perfluorocompounds used in the cleaning process of the invention was further evaluated. A 1.28 cm×1.28 cm×0.225 cm wire-wrapped, aluminum coupon was coated with white heavy mineral oil (available from Aldrich Chemical) by immersing the coupon in an oil-filled beaker. The initial amount of the oil on the coupon was determined by weighing it on an analytical balance to the nearest 0.1 mg. The coupon was immersed in a container of solvent and sonicated for 1 minute at the indicated temperature (see Table 3 below for the solvents and temperatures used). The coupon was then weighed again, and the results were recorded in Table 3 as percent oil removal."}, "[12]": {"settings": "20 weight % ether, 80 % n-butyl bromide"}, "[13]": {"settings": "30 weight % ether, 70 % n-butyl bromide"}, "[14]": {"settings": "50 weight % ether, 50 % n-butyl bromide"}, "[15]": {"settings": "80 weight % ether, 20 % n-butyl bromide"}},
  "data": [
    {"smiles": "COC(F)(F)C(F)(F)C(F)(F)C(F)(F)F", "note": "[Example C4F9OCH3, perfluorobutyl methyl ether]", "values": [
      {"measurement": "Percent Soil Removed", "setting": "[1]", "value": 90.8, "unit": "%"},
      {"measurement": "Flash point", "setting": "[2]", "value": "no flash point"},
      {"measurement": "Percent Soil Removed", "setting": "[3]", "value": 94.61, "unit": "%"},
      {"measurement": "Miscibility with solute", "setting": "[4]; Brayco 815Z Perfluoropolyether (MW about 10,000)", "value": "Miscible (greater than or equal to 50 percent by volume solubility at room temperature)"},
      {"measurement": "Miscibility with solute", "setting": "[4]; Chlorotrifluoroethylene Fluid (Inland 41 Vacuum Pump Oil)", "value": "Miscible (greater than or equal to 50 percent by volume solubility at room temperature)"},
      {"measurement": "Miscibility with solute", "setting": "[4]; Fomblin AM-2001 Functionalized Perfluoropolyether", "value": "Miscible (greater than or equal to 50 percent by volume solubility at room temperature)"},
      {"measurement": "% Removed", "setting": "[5]", "value": 99.1, "unit": "%"},
      {"measurement": "Largest Carbon Number of Longest Hydrocarbon Alkane to Dissolve", "setting": "[6]; [12]", "value": 21},
      {"measurement": "Largest Carbon Number of Longest Hydrocarbon Alkane to Dissolve", "setting": "[6]; 20 weight % ether, 80 % t-DCE", "value": 22},
      {"measurement": "Largest Carbon Number of Longest Hydrocarbon Alkane to Dissolve", "setting": "[6]; [13]", "value": 21},
      {"measurement": "Largest Carbon Number of Longest Hydrocarbon Alkane to Dissolve", "setting": "[6]; [14]", "value": 15},
      {"measurement": "Largest Carbon Number of Longest Hydrocarbon Alkane to Dissolve", "setting": "[6]; 50 weight % ether, 50 % t-DCE", "value": 16},
      {"measurement": "Largest Carbon Number of Longest Hydrocarbon Alkane to Dissolve", "setting": "[6]; [15]", "value": 11},
      {"measurement": "Largest Carbon Number of Longest Hydrocarbon Alkane to Dissolve", "setting": "[6]; 80 weight % ether, 20 % t-DCE", "value": 11},
      {"measurement": "Largest Carbon Number of Longest Hydrocarbon Alkane to Dissolve", "setting": "[6]; 100 weight % ether, 0 % n-butyl bromide", "value": 9},
      {"measurement": "Largest Carbon Number of Longest Hydrocarbon Alkane to Dissolve", "setting": "[6]; 100 weight % ether, 0 % t-DCE", "value": 9},
      {"measurement": "Closed Cup Flash Point (ASTM D3278-96)", "setting": "[7]; [12]", "value": "none^4"},
      {"measurement": "Closed Cup Flash Point (ASTM D3278-96)", "setting": "[7]; [13]", "value": "none^4"},
      {"measurement": "Closed Cup Flash Point (ASTM D3278-96)", "setting": "[7]; [14]", "value": "none^4"},
      {"measurement": "Closed Cup Flash Point (ASTM D3278-96)", "setting": "[7]; [15]", "value": "none^4"},
      {"measurement": "Closed Cup Flash Point (ASTM D3278-96)", "setting": "[7]; 100 weight % ether, 0 % n-butyl bromide, raised to 140° F. (60° C.)", "value": "none^4"},
      {"measurement": "HF Generation Rate", "setting": "[8]", "value": 0.67, "unit": "µg/g/h"},
      {"measurement": "Stability in the presence of base", "setting": "[9]", "value": "stable in the presence of the base"},
      {"measurement": "Stability in the presence of acid", "setting": "[10]; 96% sulfuric acid, 16 hours at room temperature", "value": "stable in the presence of the acid"},
      {"measurement": "Stability in Presence of Acid: conversion to ester", "setting": "[10]; neat ether, sulfuric acid as in Stability in the Presence of Acid section", "value": "no rxn. (0%"},
      {"measurement": "percent oil removal", "setting": "[11]; 23 ° C.", "value": 60.3, "unit": "%"},
      {"measurement": "percent oil removal", "setting": "[11]; 50 ° C.", "value": 98.7, "unit": "%"},
      {"measurement": "percent oil removal", "setting": "[11]; 60 ° C.", "value": 99.9, "unit": "%"}
    ]}
  ]
}
